Consider 18 molecules from PubChem BioAssay AID306 (DTP/NCI, 2004).

SMILES strings stand for the structures. Several values for one entry are separate records, joined by “and”; a condition that tells them apart may be missing. Equal values may be shown once. Inconclusive results and toxic doses are left out.

The subject of this assay is BDF1 mice, L1210 Methyl-GAG-resistant leukemia, survival T/C. The assay can be described thus: NCI In Vivo Anticancer Drug Screen. Data for tumor model L1210 Leukemia resistant to Methyl-GAG; NSC 32946 (subcutaneous) in B6D2F1 (BDF1) mice. The conditions noted are these: endpoint: mean survival time, schedule: Q01DX Z (ip), higher = longer survival. Here is the method: The antitumor activity of compounds was measured in mice bearing transplantable tumors. Survival or tumor size were measured and the results are expressed as the measurement made in the treated group (T) divided by the measurement made in the vehicle treated control group (C). The tumor model used in this assay is L1210 Leukemia resistant to Methyl-GAG; NSC 32946 (subcutaneous) in B6D2F1 (BDF1) mice

Setting [1] is: dose: 12.5 mg/kg/injection, vehicle: carboxymethylcellulose (CMC).
Setting [2] is: dose: 50.0 mg/kg/injection, vehicle: carboxymethylcellulose (CMC).
Where [3] appears, read: dose: 100.0 mg/kg/injection, vehicle: carboxymethylcellulose (CMC).
[4] abbreviates: dose: 25.0 mg/kg/injection, vehicle: carboxymethylcellulose (CMC).
Where [5] appears, read: dose: 200.0 mg/kg/injection, vehicle: carboxymethylcellulose (CMC).
The mark [6] stands for this setting: dose: 2.5 mg/kg/injection, vehicle: carboxymethylcellulose (CMC).
Where [7] appears, read: dose: 6.25 mg/kg/injection, vehicle: carboxymethylcellulose (CMC).
The mark [8] stands for this setting: dose: 5.0 mg/kg/injection, vehicle: carboxymethylcellulose (CMC).
Setting [9] is: dose: 10.0 mg/kg/injection, vehicle: carboxymethylcellulose (CMC).
The mark [10] stands for this setting: dose: 20.0 mg/kg/injection, vehicle: carboxymethylcellulose (CMC).

As for `C1CN1c1nc(N2CC2)nc(N2CC2)n1`, the T/C is, setting by setting: (dose: 62.5 micrograms/kg/injection, vehicle: saline) 96 % of control; (dose: 250.0 micrograms/kg/injection, vehicle: saline) 97 % of control; (dose: 1000.0 micrograms/kg/injection, vehicle: saline) 110 % of control.
Regarding `CN(Cc1cnc2nc(N)nc(N)c2n1)c1c(Cl)cc(C(=O)NC(CCC(=O)O)C(=O)O)cc1Cl` (configuration not stated), the T/C is 116 % of control under setting [1], 195 % of control under setting [2] and 317 % of control under setting [3].
Regarding `CS(=O)(=O)OCCCCOS(C)(=O)=O`, the T/C is 102 % of control (dose: 0.4 mg/kg/injection, vehicle: methylcellulose (MC)); 102 % of control (dose: 1.6 mg/kg/injection, vehicle: methylcellulose (MC)); 86 % of control (dose: 3.2 mg/kg/injection, vehicle: methylcellulose (MC)); 88 % of control and 102 % of control (dose: 6.4 mg/kg/injection, vehicle: methylcellulose (MC)).
As for `C[N+](C)(C)c1ncnc2nc[nH]c12`, the T/C under setting [1] is 101 % of control; the T/C under setting [4] was 103 % of control; the T/C under setting [2] was 101 % of control and 112 % of control; the T/C under setting [3] was 94 % of control and 117 % of control; the T/C under setting [5] was 102 % of control.
Take `CCCNc1ncnc2[nH]ncc12`: the T/C was 96 % of control (dose: 5.0 mg/kg/injection, vehicle: water); 93 % of control (dose: 10.0 mg/kg/injection, vehicle: water); 120 % of control (dose: 20.0 mg/kg/injection, vehicle: water); 88 % of control and 112 % of control (dose: 40.0 mg/kg/injection, vehicle: water).
Take `O=c1[nH]c(=O)n(C2CC(O)C(CO)O2)cc1I` (configuration not stated): the T/C by setting is: (dose: 62.5 mg/kg/injection, vehicle: carboxymethylcellulose (CMC)) 118 % of control; (dose: 125.0 mg/kg/injection, vehicle: carboxymethylcellulose (CMC)) 112 % of control; (dose: 500.0 mg/kg/injection, vehicle: carboxymethylcellulose (CMC)) 117 % of control.
On to `Nc1ncnc2c1ccn2C1OC(CO)C(O)C1O` (configuration not stated), for which the T/C reads like this: (dose: 0.31 mg/kg/injection, vehicle: carboxymethylcellulose (CMC)) 89 % of control and 97 % of control; (dose: 0.63 mg/kg/injection, vehicle: carboxymethylcellulose (CMC)) 91 % of control and 102 % of control; (dose: 1.25 mg/kg/injection, vehicle: carboxymethylcellulose (CMC)) 97 % of control and 112 % of control; under setting [6], 94 % of control.
Regarding `N#CCSc1ncnc2nc[nH]c12`, the T/C under setting [1] was 101 % of control, the T/C under setting [4] was 110 % of control and the T/C under setting [2] was 123 % of control.
Regarding `CCCCn1cnc2c(=S)nc[nH]c21`, the T/C runs as follows: (dose: 3.1 mg/kg/injection, vehicle: carboxymethylcellulose (CMC)) 91 % of control; under setting [7], 113 % of control; under setting [1], 97 % of control; under setting [4], 103 % of control.
As for `O=C(Nc1ccc(C2=NCCCN2)cc1)c1ccc(NC(=O)c2ccc(C3=NCCCN3)cc2)cc1`, the T/C is 97 % of control (dose: 0.24 mg/kg/injection, vehicle: carboxymethylcellulose (CMC)); 101 % of control (dose: 0.47 mg/kg/injection, vehicle: carboxymethylcellulose (CMC)); 104 % of control (dose: 0.95 mg/kg/injection, vehicle: carboxymethylcellulose (CMC)); 98 % of control (dose: 1.9 mg/kg/injection, vehicle: carboxymethylcellulose (CMC)); 175 % of control and 192 % of control (dose: 1.95 mg/kg/injection, vehicle: carboxymethylcellulose (CMC)); 169 % of control and 232 % of control (dose: 3.9 mg/kg/injection, vehicle: carboxymethylcellulose (CMC)). In addition, the T/C was 216 % of control (dose: 7.8 mg/kg/injection, vehicle: carboxymethylcellulose (CMC)); 112 % of control and 122 % of control (dose: 15.6 mg/kg/injection, vehicle: carboxymethylcellulose (CMC)).
Consider `C[C@@H]1C[C@H]2CC[C@H](O2)[C@H](C)C(=O)O[C@@H](C)C[C@@H]2CC[C@@H](O2)[C@@H](C)C(=O)O[C@H](C)C[C@H]2CC[C@H](O2)[C@H](C)C(=O)O[C@@H](C)C[C@@H]2CC[C@@H](O2)[C@@H](C)C(=O)O1`, for which the T/C is 97 % of control under setting [4], 91 % of control under setting [2], 91 % of control under setting [3] and 97 % of control under setting [5].
Consider `Nc1nc(SCc2ccccc2)c2[nH]cnc2n1`, for which the T/C under setting [7] was 104 % of control and the T/C under setting [1] was 154 % of control.
`COc1cc2c(c(OC)c1OC)-c1ccc(OC)c(=O)cc1[C@@H](NC(C)=O)CC2`: the T/C is 95 % of control (dose: 0.12 mg/kg/injection, vehicle: saline); 96 % of control (dose: 0.25 mg/kg/injection, vehicle: saline); 101 % of control (dose: 0.5 mg/kg/injection, vehicle: saline).
`C[C@H]1C(=O)O[C@@H]2CCN3CC=C(COC(=O)[C@](C)(O)[C@@]1(C)O)[C@H]23`: the T/C is 94 % of control (dose: 1.88 mg/kg/injection, vehicle: carboxymethylcellulose (CMC)); 96 % of control (dose: 3.75 mg/kg/injection, vehicle: carboxymethylcellulose (CMC)); 92 % of control (dose: 7.5 mg/kg/injection, vehicle: carboxymethylcellulose (CMC)); 92 % of control and 99 % of control (dose: 15.0 mg/kg/injection, vehicle: carboxymethylcellulose (CMC)); 105 % of control (dose: 30.0 mg/kg/injection, vehicle: carboxymethylcellulose (CMC)); 106 % of control (dose: 60.0 mg/kg/injection, vehicle: carboxymethylcellulose (CMC)). Moreover, the T/C (dose: 120.0 mg/kg/injection, vehicle: carboxymethylcellulose (CMC)) is 113 % of control.
In the case of `O=C(Nc1ccc(C2=NCCCN2)cc1)c1ccc(C(=O)Nc2ccc(C3=NCCCN3)cc2)cc1`, the T/C is, setting by setting: (dose: 0.2 mg/kg/injection, vehicle: water) 100 % of control; (dose: 0.4 mg/kg/injection, vehicle: water) 108 % of control; (dose: 0.8 mg/kg/injection, vehicle: water) 121 % of control; (dose: 1.6 mg/kg/injection, vehicle: water) 158 % of control and 211 % of control; (dose: 3.1 mg/kg/injection, vehicle: water) 212 % of control.
On to `CC(CCC(C)OS(C)(=O)=O)OS(C)(=O)=O` (configuration not stated), for which the T/C was 90 % of control under setting [8], 87 % of control under setting [9] and 95 % of control under setting [10].
Take `O=NN(CCCl)C(=O)NCCCl`: the T/C (dose: 1.0 mg/kg/injection, vehicle: saline) is 122 % of control; the T/C (dose: 2.0 mg/kg/injection, vehicle: saline) was 155 % of control; the T/C (dose: 4.0 mg/kg/injection, vehicle: saline) was 202 % of control; the T/C (dose: 8.0 mg/kg/injection, vehicle: saline) is 172 % of control; the T/C (dose: 16.0 mg/kg/injection, vehicle: saline) is 92 % of control; the T/C (dose: 32.0 mg/kg/injection, vehicle: saline) was 92 % of control.
In the case of `CC1CCOS(=O)O1` (configuration not stated), the T/C runs as follows: under setting [6], 95 % of control; under setting [8], 101 % of control; under setting [9], 97 % of control; under setting [10], 97 % of control; (dose: 40.0 mg/kg/injection, vehicle: carboxymethylcellulose (CMC)) 95 % of control; (dose: 80.0 mg/kg/injection, vehicle: carboxymethylcellulose (CMC)) 92 % of control.
